Marks after values point to notes of the source that are not given here. Ends that are not written are not given here.

For series [1], the system named is murine B16 melanoma cells. In words: Lung melanoma metastases in B16 tumor-bearing mice. The format is in vivo, mouse. The note with it: treatment alone vs non-treated tumor-bearing mice.
From the text: In this study the tumor loading dose was 1×10^5 B16 cells per mouse to examine the effects of HNG on peripheral blood leucocytes, plasma IGF-1 and IGFBP-1 levels while confirming its additive or synergistic effect on CP-induced suppression of lung melanoma metastases. Twenty-five young adult (12-week-old) male mice (C57BL/6J) were used for this experiment in which 5 mice were used as control and 20 mice of each were intravenously inoculated via the tail vein with 1×10^5 murine B16 melanoma cells. 20 tumor-bearing mice were randomly divided into 4 groups with 5 mice in each group received 1) no treatment; 2) HNG alone; 3) CP alone; and 4) a combination treatment with the doses and duration described above.
Series [2] concerns germ cells. The note with it: cited from earlier work.
Series [3] deals with peripheral blood leucocytes. As to the method:
(§1) Mice were injected with heparin (1300 IU/kg BW, ip) 15 min before sacrifice by sodium pentobarbital (200 mg/kg BW IP). Body weight (BW) was recorded at autopsy. Blood samples were collected from the right ventricle of each mouse immediately after death and used for complete blood count using an automated cell counter (VetScanHM2, ABAXIS, Union City, Calif.). Plasma was separated and stored at −20° C. for subsequent HNG, IGF-1 and IGFBP-1 measurements by specific and sensitive ELISA assays as previously described (Chin et al., Endocrinology. 2013; 154:3739-44; Hwang et al, Growth Horm IGF Res 2008; 18: 65-74).
(§2) Twenty-five young adult (12-week-old) male mice (C57BL/6J) were used for this experiment in which 5 mice were used as control and 20 mice of each were intravenously inoculated via the tail vein with 1×10^5 murine B16 melanoma cells. 20 tumor-bearing mice were randomly divided into 4 groups with 5 mice in each group received 1) no treatment; 2) HNG alone; 3) CP alone; and 4) a combination treatment with the doses and duration described above.

Series [4] concerns IGF-1. Put plainly: Plasma IGF-1 levels (ELISA) in B16 tumor-bearing mice. The format is in vivo, mouse. As to conditions: treatment alone, tumor-bearing mice (FIG. 3B). The procedure: as §1, §2
On the technique in general: An ELISA detects its analyte on a solid surface through an enzyme-linked reagent.

Series [5] has as its system IGF-1. In words: Plasma IGF-1 levels among groups in healthy mice (Table 6). The note with it: mean ± SEM. The format is in vivo, mouse. As to the method:
(§3) Body weight (BW) was recorded at autopsy.

Series [6] deals with peripheral leucocytes. In words: Peripheral leucocytes among treatment groups of healthy mice (Table 7). The format is in vivo, mouse. As to conditions: mean ± SEM. As to the method:
as §3

Series [7] relates to IGFBP-1. Put plainly: Plasma IGFBP-1 levels among groups in healthy mice (Table 6). The format is in vivo, mouse. As to conditions: mean ± SEM. The procedure: as §3
For series [8], the system named is red blood cell or platelet. In words: Red blood cell and platelet counts in B16 tumor-bearing mice. The procedure:
as §1, §2

Series [9] deals with white blood cells. The format is in vivo. As to the method: as §3
The effect of a potent HN analog HNG (HN-S14G) (5mg/KG/day, IP) with and without concomitant cyclophosphamide (CP, 200 mg IP) treatment was administered to 4 adult healthy mice in each group. Another four mice served as controls. Two days after treatment, the animals were killed and their peripheral blood cells were collected and the blood cell counts were assessed by a blood cell counter.

Series [10] relates to white blood cells. It is filed as in vivo. As to conditions: CP 200 mg IP single dose, melanoma-bearing mice (FIG. 2). As to the method: The effect of a potent HN analog HNG (HN-S14G) with or without cyclophosphamide (CP) in a mouse melanoma with lung metastasis model was studied. Five mice were used as control (Con) and 40 mice were inoculated intravenously with B16 murine melanoma cells. Of these mice five received no further treatment (NT). A week later the remaining 35 mice (n=5 per group) were treated for additional 2 weeks with: • 1) HNG 0.05 mg/KG body weight (BW) daily IP injection for 2 weeks; • 2) HNG 0.5 mg mg/Kg BW daily IP injection for 2 weeks; • 3) HNG 5 mg/Kg BW daily IP injection for 2 weeks; • 4) a single CP (200 mg IP single dose) injection+HNG 0.05 mg/KG body weight (BW) daily IP injection for 2 weeks; • 5) a single CP (200 mg IP single dose) injection+HNG 0.5 mg mg/Kg BW daily IP injection for 2 weeks; • 6) a single CP (200 mg IP single dose) injection HNG 0.5 mg mg/Kg BW daily IP injection for 2 weeks; • 7) a single CP (200 mg IP single dose) injection+HNG 5 mg mg/Kg BW daily IP injection.
All mice were sacrificed three weeks after tumor inoculation and two weeks after CP/HNG treatment. Blood was obtained for the measurement of white blood cell (WBC) count by a Coulter Counter.

Series [11] concerns cells. As to conditions: HN mutant compared with HN; cited from earlier work.
The conditions of series [12]: mouse, in vivo. The procedure: as §1, §2
The conditions of series [13]: mouse, in vivo. The source holds these as a separate data set.
The mark [14] stands for this setting: during in vivo treatment with CP (Drumond, et al., 2011).

Turning to `O=P1(N(CCCl)CCCl)NCCCO1` (stereo not shown) [CP, cyclophosphamide monohydrate], the “number of metastatic tumors in the lungs” value in series [1] was “significantly decreased”. For the same compound, in series [2] (setting [14]), the “differentiated germ cells of mice” value is “eliminated” and the “undifferentiated germ cells remained” value is reported as “about half”. Besides, in series [2] (once CP treatment was stopped (Drumond, et al., 2011)), the “germ cells regenerated from undifferentiated stem cells” value was “about 64%”. The “number of white blood cells” value in [3] (CP alone vs non-treated tumor-bearing mice (FIG. 4A)) was “significantly suppressed”. Moreover, the granulocytes result in series [3] (CP alone vs non-treated tumor-bearing mice (FIG. 4B)) was “significantly suppressed”. Besides, the monocytes result in [3] (CP alone vs non-treated tumor-bearing mice (FIG. 4C)) was “significantly suppressed”. In addition, the lymphocytes entry in series [3] (CP alone vs non-treated tumor-bearing mice (FIG. 4D)) is “significantly suppressed”. Moreover, the “plasma IGF-1 levels” value in [4] is recorded as “significantly suppressed”. The “IGF-1 (ng/ml)” value in series [5] is given as 182.4 ± 10.5^c ng/ml. In [6], the “Granulocytes (10^6/ml)” value is on record as 0.2 ± 0.02^b 10^6/ml, the “Lymphocytes (10^6/ml)” value was 0.07 ± 0.01^b 10^6/ml, the “Monocytes (10^6/ml)” value is given as 0.01 ± 0.01^b 10^6/ml and the “Total WBC (10^6/ml)” value is given as 0.3 ± 0.02^b 10^6/ml. In [7], the “IGFBP-1 (ng/ml)” value is given as 7.4 ± 1.3^b ng/ml. Also, in series [8], the platelet counts entry is given as “no significant decreases” and the “red blood cell counts” value is on record as “no significant decreases”. In addition, the “granulocyte count in the blood, of baseline value” in series [9] (CP 200 mg IP alone, two days after CP treatment (FIG. 1B)) was “about 25%”. Also, in [9] (CP 200 mg IP alone, two days after treatment (FIG. 1A)), the “WBC, fraction of the baseline counts” value is given as “about ⅕”. Moreover, in [10], the “WBC count, fraction of control values” is recorded as “about ⅓”.

Take “HN-C8A: Cys8 to Ala; MAPRGFSALLLLTSEIDLPVKRRA (SEQ ID NO: 42)”: the “Cytoprotective Action” value in series [11] is listed as “Not effective, prevents”.

Take “HN-C8P: MAPRGFSPLLLLTSEIDLPVKRRA (SEQ ID NO: 25); Cys8 to Pro”: the “Cytoprotective Action” value in [11] is “Not effective, blocks”.

Take “HN-F6A: MAPRGASCLLLLTSEIDLPVKRRA (SEQ ID NO: 22); Phe6 to Ala”: in series [11], the “Cytoprotective Action” value was “Similar/more effective”.

In the case of “HN-L12A: HN mutant, Leu12 to Ala (MAPRGFSCLLLATSEIDLPVKRRA; Humanin; UniProt Q8IVG9 1-24, looked up, variant L12A)”, the “Cytoprotective Action” value in series [11] was “HN antagonist, forms”.

Turning to “HN-S7A: MAPRGFACLLLLTSEIDLPVKRRA (SEQ ID NO: 24); Ser7 to Ala”, the “Cytoprotective Action” value in series [11] is given as “Not effective, prevents”.

For “HN: MAPRGFSCLLLLTSEIDLPVKRRA (SEQ ID NO: 1); 24-amino acid mitochondrial derived peptide”, the “total number of white blood cells (WBC)” value in series [9] (HNG 5mg/KG/day IP alone, adult healthy mice, two days after treatment, vs controls (FIG. 1A)) is listed as “increased slightly but significantly”.

Take MAPRGFSCLLLLTGEIDLPVKRRA [HNG]: the “plasma HNG levels” value in series [12] was “increased”. Besides, the “HNG (ng/ml)” value in [13] was 80.8 ± 7.8^b ng/ml.
